Laboratory results reported in ChEMBL document CHEMBL4184210, “Optimization of novel monobactams with activity against carbapenem-resistant Enterobacteriaceae - Identification of LYS228” (Bioorg Med Chem Lett, 2018).
Values after ≈ are worked out from the molar mass of the structure shown. Each block holds one compound with its values, some of them ahead of it.

Assays:
Escherichia coli [1] = assay: Antimicrobial activity against Escherichia coli expressing beta-lactamase KPC-2 by CLSI broth microdilution method; format: functional
Escherichia coli [2] = assay: Antimicrobial activity against Escherichia coli expressing beta-lactamase VEB-1 by CLSI broth microdilution method; format: functional
Escherichia coli [3] = assay: Antimicrobial activity against Escherichia coli expressing beta-lactamase TEM-1 by CLSI broth microdilution method; format: functional
Escherichia coli [4] = assay: Antimicrobial activity against Escherichia coli expressing beta-lactamase NDM-5 by CLSI broth microdilution method; format: functional
[5] = Chemical stability in pH 7.4 potassium phosphate buffer assessed as half life for compound hydrolysis at 37 degC by UPLC and mass spectrometry; format: physicochemical
Enterobacteriaceae = assay: Antimicrobial activity against ESBL, KPC and MBL producing Enterobacteriaceae by CLSI broth microdilution method; format: functional
Pseudomonas aeruginosa [6] = assay: Antimicrobial activity against Pseudomonas aeruginosa ATCC 27853 by CLSI broth microdilution method; format: functional
Pseudomonas aeruginosa [7] = assay: Antimicrobial activity against Pseudomonas aeruginosa expressing delta-mexB/delta-mexXY/delta-mexCD and delta-ampC mutant by CLSI broth microdilution method; format: functional
Pseudomonas aeruginosa [8] = assay: Antimicrobial activity against Pseudomonas aeruginosa expressing nalB/delta-mexXY/delta-mexCDoprJ/delta-ampC by CLSI broth microdilution method; format: functional
Pseudomonas aeruginosa [9] = assay: Antimicrobial activity against Pseudomonas aeruginosa expressing delta-mexB/mexXY/delta-ampDh2/ delta-ampD by CLSI broth microdilution method; format: functional
Escherichia coli [10] = assay: microbe, parasite or virus in culture
Description: Antimicrobial activity against wild type Escherichia coli by CLSI broth microdilution method

Escherichia coli [11] = assay: microbe, parasite or virus in culture; remark: listed apart in the source
Description: Antimicrobial activity against Escherichia coli expressing beta-lactamase KPC-3 by CLSI broth microdilution method

Escherichia coli [12] = assay: microbe, parasite or virus in culture; remark: listed apart in the source
Description: Antimicrobial activity against Escherichia coli expressing beta-lactamase KPC-4 by CLSI broth microdilution method

Escherichia coli [13] = assay: microbe, parasite or virus in culture; remark: listed apart in the source
Description: Antimicrobial activity against Escherichia coli expressing beta-lactamase KPC-8 by CLSI broth microdilution method

Escherichia coli [14] = assay: microbe, parasite or virus in culture; remark: listed apart in the source
Description: Antimicrobial activity against Escherichia coli expressing beta-lactamase NMC-A by CLSI broth microdilution method

Escherichia coli [15] = assay: microbe, parasite or virus in culture; remark: listed apart in the source
Description: Antimicrobial activity against Escherichia coli expressing beta-lactamase PER-2 by CLSI broth microdilution method

Escherichia coli [16] = assay: microbe, parasite or virus in culture; remark: listed apart in the source
Description: Antimicrobial activity against Escherichia coli expressing beta-lactamase PER-4 by CLSI broth microdilution method

Escherichia coli [17] = assay: microbe, parasite or virus in culture; remark: listed apart in the source
Description: Antimicrobial activity against Escherichia coli expressing beta-lactamase SHV-12 by CLSI broth microdilution method

Escherichia coli [18] = assay: microbe, parasite or virus in culture; remark: listed apart in the source
Description: Antimicrobial activity against Escherichia coli expressing beta-lactamase SME-1 by CLSI broth microdilution method

Escherichia coli [19] = assay: microbe, parasite or virus in culture; remark: listed apart in the source
Description: Antimicrobial activity against Escherichia coli expressing beta-lactamase VEB-4 by CLSI broth microdilution method

Escherichia coli [20] = assay: microbe, parasite or virus in culture; remark: listed apart in the source
Description: Antimicrobial activity against Escherichia coli expressing beta-lactamase VEB-7 by CLSI broth microdilution method

Escherichia coli [21] = assay: microbe, parasite or virus in culture; remark: listed apart in the source
Description: Antimicrobial activity against Escherichia coli expressing beta-lactamase TEM-10 by CLSI broth microdilution method

Escherichia coli [22] = assay: microbe, parasite or virus in culture; remark: listed apart in the source
Description: Antimicrobial activity against Escherichia coli expressing beta-lactamase TEM-16 by CLSI broth microdilution method

Escherichia coli [23] = assay: microbe, parasite or virus in culture; remark: listed apart in the source
Description: Antimicrobial activity against Escherichia coli expressing beta-lactamase TEM-24 by CLSI broth microdilution method

Escherichia coli [24] = assay: microbe, parasite or virus in culture; remark: listed apart in the source
Description: Antimicrobial activity against Escherichia coli expressing beta-lactamase TEM-47 by CLSI broth microdilution method

Escherichia coli [25] = assay: microbe, parasite or virus in culture; remark: listed apart in the source
Description: Antimicrobial activity against Escherichia coli expressing beta-lactamase TEM-121 by CLSI broth microdilution method

Escherichia coli [26] = assay: microbe, parasite or virus in culture; remark: listed apart in the source
Description: Antimicrobial activity against Escherichia coli expressing beta-lactamase GIM-1 by CLSI broth microdilution method

Escherichia coli [27] = assay: microbe, parasite or virus in culture; remark: listed apart in the source
Description: Antimicrobial activity against Escherichia coli expressing beta-lactamase IMP-1 by CLSI broth microdilution method

Escherichia coli [28] = assay: microbe, parasite or virus in culture; remark: listed apart in the source
Description: Antimicrobial activity against Escherichia coli expressing beta-lactamase SPM-1 by CLSI broth microdilution method

Escherichia coli [29] = assay: microbe, parasite or virus in culture; remark: listed apart in the source
Description: Antimicrobial activity against Escherichia coli expressing beta-lactamase AmpC by CLSI broth microdilution method

Escherichia coli [30] = assay: microbe, parasite or virus in culture; remark: listed apart in the source
Description: Antimicrobial activity against Escherichia coli expressing beta-lactamase DHA by CLSI broth microdilution method

Escherichia coli [31] = assay: microbe, parasite or virus in culture; remark: listed apart in the source
Description: Antimicrobial activity against Escherichia coli expressing beta-lactamase CMY-2 by CLSI broth microdilution method

Escherichia coli [32] = assay: microbe, parasite or virus in culture; remark: listed apart in the source
Description: Antimicrobial activity against Escherichia coli expressing beta-lactamase P99 by CLSI broth microdilution method

Escherichia coli [33] = assay: microbe, parasite or virus in culture; remark: listed apart in the source
Description: Antimicrobial activity against Escherichia coli expressing beta-lactamase Oxa-10 by CLSI broth microdilution method

Escherichia coli [34] = assay: microbe, parasite or virus in culture; remark: listed apart in the source
Description: Antimicrobial activity against Escherichia coli expressing beta-lactamase Oxa-23 by CLSI broth microdilution method

Escherichia coli [35] = assay: microbe, parasite or virus in culture; remark: listed apart in the source
Description: Antimicrobial activity against Escherichia coli expressing beta-lactamase Oxa-40 by CLSI broth microdilution method

Escherichia coli [36] = assay: microbe, parasite or virus in culture; remark: listed apart in the source
Description: Antimicrobial activity against Escherichia coli expressing beta-lactamase Oxa-48 by CLSI broth microdilution method

Escherichia coli [37] = assay: microbe, parasite or virus in culture; remark: listed apart in the source
Description: Antimicrobial activity against Escherichia coli expressing beta-lactamase Oxa-51 by CLSI broth microdilution method

Escherichia coli [38] = assay: microbe, parasite or virus in culture; remark: listed apart in the source
Description: Antimicrobial activity against Escherichia coli expressing beta-lactamase Oxa-146 by CLSI broth microdilution method

Escherichia coli [39] = assay: microbe, parasite or virus in culture; remark: listed apart in the source
Description: Antimicrobial activity against Escherichia coli expressing beta-lactamase Oxa-181 by CLSI broth microdilution method

Escherichia coli [40] = assay: microbe, parasite or virus in culture; remark: listed apart in the source
Description: Antimicrobial activity against Escherichia coli expressing beta-lactamase Oxa-225 by CLSI broth microdilution method

SMILES: NC[C@@H]1CN(C[C@@H]2[C@H](NC(=O)/C(=N\OC3(C(=O)O)CC3)c3csc(N)n3)C(=O)N2S(=O)(=O)O)C(=O)O1 (stereo in doubt)
MIC (Escherichia coli [1]): 0.125 µg/mL (≈ 0.228 µM)
MIC (Escherichia coli [2]): 32 µg/mL (≈ 58.4 µM)
MIC (Escherichia coli [3]): 0.125 µg/mL (≈ 0.228 µM)
MIC (Escherichia coli [4]): 0.25 µg/mL (≈ 0.457 µM)
half-life [5]: 157 h
MIC90 (Enterobacteriaceae): 1 µg/mL (≈ 1.83 µM)
MIC (Pseudomonas aeruginosa [6]): 32 µg/mL (≈ 58.4 µM)
MIC (Pseudomonas aeruginosa [7]): 16 µg/mL (≈ 29.2 µM)
MIC (Pseudomonas aeruginosa [8]): > 64 µg/mL
MIC (Pseudomonas aeruginosa [9]): > 32 µg/mL
MIC (Escherichia coli [10]): 0.125 µg/mL (≈ 0.228 µM)
MIC (Escherichia coli [11]): 0.125 µg/mL (≈ 0.228 µM)
MIC (Escherichia coli [12]): 1 µg/mL (≈ 1.83 µM)
MIC (Escherichia coli [13]): 1 µg/mL (≈ 1.83 µM)
MIC (Escherichia coli [14]): 0.125 µg/mL (≈ 0.228 µM)
MIC (Escherichia coli [15]): > 32 µg/mL
MIC (Escherichia coli [16]): > 32 µg/mL
MIC (Escherichia coli [17]): 0.25 µg/mL (≈ 0.457 µM)
MIC (Escherichia coli [18]): 0.06 µg/mL (≈ 0.11 µM)
MIC (Escherichia coli [19]): 32 µg/mL (≈ 58.4 µM)
MIC (Escherichia coli [20]): 32 µg/mL (≈ 58.4 µM)
MIC (Escherichia coli [21]): 1 µg/mL (≈ 1.83 µM)
MIC (Escherichia coli [22]): 0.125 µg/mL (≈ 0.228 µM)
MIC (Escherichia coli [23]): 0.125 µg/mL (≈ 0.228 µM)
MIC (Escherichia coli [24]): ≤ 0.06 µg/mL
MIC (Escherichia coli [25]): ≤ 0.06 µg/mL
MIC (Escherichia coli [26]): 0.03 µg/mL (≈ 0.0548 µM)
MIC (Escherichia coli [27]): 0.06 µg/mL (≈ 0.11 µM)
MIC (Escherichia coli [28]): 0.06 µg/mL (≈ 0.11 µM)
MIC (Escherichia coli [29]): 0.125 µg/mL (≈ 0.228 µM)
MIC (Escherichia coli [30]): 0.25 µg/mL (≈ 0.457 µM)
MIC (Escherichia coli [31]): 0.125 µg/mL (≈ 0.228 µM)
MIC (Escherichia coli [32]): 0.125 µg/mL (≈ 0.228 µM)
MIC (Escherichia coli [33]): 0.125 µg/mL (≈ 0.228 µM)
MIC (Escherichia coli [34]): ≤ 0.06 µg/mL
MIC (Escherichia coli [35]): 0.125 µg/mL (≈ 0.228 µM)
MIC (Escherichia coli [36]): 0.06 µg/mL (≈ 0.11 µM)
MIC (Escherichia coli [37]): ≤ 0.06 µg/mL
MIC (Escherichia coli [38]): 2 µg/mL (≈ 3.65 µM)
MIC (Escherichia coli [39]): 0.25 µg/mL (≈ 0.457 µM)
MIC (Escherichia coli [40]): 0.5 µg/mL (≈ 0.913 µM)

MIC (Escherichia coli [1]): 0.125 µg/mL (≈ 0.219 µM)
MIC (Escherichia coli [2]): 16 µg/mL (≈ 28 µM)
MIC (Escherichia coli [3]): 0.125 µg/mL (≈ 0.219 µM)
MIC (Escherichia coli [4]): 0.25 µg/mL (≈ 0.437 µM)
half-life [5]: 89 h
MIC90 (Enterobacteriaceae): 2 µg/mL (≈ 3.5 µM)
MIC (Escherichia coli [10]): 0.125 µg/mL (≈ 0.219 µM)
MIC (Escherichia coli [11]): 0.125 µg/mL (≈ 0.219 µM)
MIC (Escherichia coli [12]): 2 µg/mL (≈ 3.5 µM)
MIC (Escherichia coli [13]): 1 µg/mL (≈ 1.75 µM)
MIC (Escherichia coli [14]): 0.125 µg/mL (≈ 0.219 µM)
MIC (Escherichia coli [15]): > 64 µg/mL
MIC (Escherichia coli [16]): 8 µg/mL (≈ 14 µM)
MIC (Escherichia coli [17]): 0.5 µg/mL (≈ 0.875 µM)
MIC (Escherichia coli [18]): 0.06 µg/mL (≈ 0.105 µM)
MIC (Escherichia coli [19]): 8 µg/mL (≈ 14 µM)
MIC (Escherichia coli [20]): 32 µg/mL (≈ 56 µM)
MIC (Escherichia coli [21]): 0.5 µg/mL (≈ 0.875 µM)
MIC (Escherichia coli [22]): 0.25 µg/mL (≈ 0.437 µM)
MIC (Escherichia coli [23]): 0.25 µg/mL (≈ 0.437 µM)
MIC (Escherichia coli [24]): 0.25 µg/mL (≈ 0.437 µM)
MIC (Escherichia coli [25]): 1 µg/mL (≈ 1.75 µM)
MIC (Escherichia coli [26]): 0.03 µg/mL (≈ 0.0525 µM)
MIC (Escherichia coli [27]): 0.125 µg/mL (≈ 0.219 µM)
MIC (Escherichia coli [28]): 0.125 µg/mL (≈ 0.219 µM)
MIC (Escherichia coli [29]): 0.125 µg/mL (≈ 0.219 µM)
MIC (Escherichia coli [30]): 4 µg/mL (≈ 7 µM)
MIC (Escherichia coli [31]): 0.25 µg/mL (≈ 0.437 µM)
MIC (Escherichia coli [32]): 0.25 µg/mL (≈ 0.437 µM)
MIC (Escherichia coli [33]): 0.25 µg/mL (≈ 0.437 µM)
MIC (Escherichia coli [34]): 0.25 µg/mL (≈ 0.437 µM)
MIC (Escherichia coli [35]): 0.125 µg/mL (≈ 0.219 µM)
MIC (Escherichia coli [36]): 0.125 µg/mL (≈ 0.219 µM)
MIC (Escherichia coli [37]): 0.25 µg/mL (≈ 0.437 µM)
MIC (Escherichia coli [38]): 1 µg/mL (≈ 1.75 µM)
MIC (Escherichia coli [39]): 0.25 µg/mL (≈ 0.437 µM)
MIC (Escherichia coli [40]): 0.25 µg/mL (≈ 0.437 µM)
SMILES: N=C(N)NCc1cn(C[C@@H]2[C@H](NC(=O)/C(=N\OC3(C(=O)O)CC3)c3csc(N)n3)C(=O)N2S(=O)(=O)O)nn1 (stereo in doubt)
